Data from PubChem BioAssay (NCI).
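Results reflect a 48-hour exposure of cells in 96-well plates to compound at five concentrations. GI50 is the concentration that inhibits growth by half. TGI is the concentration that stops growth completely.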

What was measured:
Assay in all cases: growth of human tumour cells (NCI), 48 h
[1] = tested on: T-47D breast
[2] = tested on: 786-0 renal
[3] = tested on: LOX IMVI melanoma
[4] = tested on: RPMI-8226 leukemia
[5] = tested on: MDA-MB-231 breast
[6] = tested on: OVCAR-5 ovarian
[7] = tested on: U251 CNS
[8] = tested on: CAKI-1 renal
[9] = tested on: HT29 colon
[10] = tested on: A498 renal
[11] = tested on: NCI-H226 lung
[12] = tested on: SK-MEL-2 melanoma
[13] = tested on: EKVX NSCLC
[14] = tested on: SN12C renal
[15] = tested on: SF-295 CNS
[16] = tested on: SNB-19 CNS
[17] = tested on: HS 578T breast
[18] = tested on: SNB-75 CNS
[19] = tested on: OVCAR-4 ovarian
[20] = tested on: MALME-3M melanoma
[21] = tested on: DU-145 prostate
[22] = tested on: HCC-2998 colon
[23] = tested on: BT-549 breast
[24] = tested on: UACC-62 melanoma
[25] = tested on: OVCAR-8 ovarian
[26] = tested on: SK-MEL-28 melanoma
[27] = tested on: SF-539 CNS
[28] = tested on: OVCAR-3 ovarian
[29] = tested on: TK-10 renal
[30] = tested on: HCT-15 colon
[31] = tested on: A549 NSCLC
[32] = tested on: MCF7 breast
[33] = tested on: NCI-H522 lung
[34] = tested on: RXF 393 renal
[35] = tested on: HOP-92 NSCLC
[36] = tested on: UACC-257 melanoma
[37] = tested on: SW-620 colon
[38] = tested on: SF-268 CNS
[39] = tested on: UO-31 renal
[40] = tested on: CCRF-CEM leukemia
[41] = tested on: K-562 leukemia
[42] = tested on: HL-60(TB) leukemia
[43] = tested on: MOLT-4 leukemia
[44] = tested on: SK-MEL-5 melanoma
[45] = tested on: PC-3 prostate
[46] = tested on: SK-OV-3 ovarian
[47] = tested on: KM12 colon
[48] = tested on: M14 melanoma
[49] = tested on: COLO 205 colon
[50] = tested on: NCI-H460 lung
[51] = tested on: HOP-62 NSCLC
[52] = tested on: MDA-MB-435
[53] = tested on: ACHN renal
[54] = tested on: NCI/ADR-RES ovarian
[55] = tested on: SR leukemia
[56] = tested on: IGROV1 ovarian
[57] = tested on: NCI-H23 lung
[58] = tested on: HCT-116 colon

Structure (SMILES): COc1ccc2c(c1)C(=O)c1c-2n(CCCN=[N+]=[N-])c(=O)c2ccccc12
- GI50 [1]: 25.9 µM
- TGI [1]: > 100 µM
- GI50 [2]: 27.9 µM
- TGI [2]: > 100 µM
- GI50 [3]: 27.9 µM
- TGI [3]: > 100 µM
- GI50 [4]: 51.3 µM
- TGI [4]: > 100 µM
- GI50 [5]: > 100 µM
- TGI [5]: > 100 µM
- GI50 [6]: > 100 µM
- TGI [6]: > 100 µM
- GI50 [7]: 27.5 µM
- TGI [7]: > 100 µM
- GI50 [8]: 49.7 µM
- TGI [8]: > 100 µM
- GI50 [9]: 41.4 µM
- TGI [9]: > 100 µM
- GI50 [10]: 21.1 µM
- TGI [10]: 69.2 µM
- GI50 [11]: > 100 µM
- TGI [11]: > 100 µM
- GI50 [12]: 46 µM
- TGI [12]: > 100 µM
- GI50 [13]: 63 µM
- TGI [13]: > 100 µM
- GI50 [14]: > 100 µM
- TGI [14]: > 100 µM
- GI50 [15]: 18.5 µM
- TGI [15]: > 100 µM
- GI50 [16]: 17.6 µM
- TGI [16]: > 100 µM
- GI50 [17]: 62.4 µM
- TGI [17]: > 100 µM
- GI50 [18]: 18.8 µM
- TGI [18]: 65.2 µM
- GI50 [19]: 58.6 µM
- TGI [19]: > 100 µM
- GI50 [20]: > 100 µM
- TGI [20]: > 100 µM
- GI50 [21]: 61.5 µM
- TGI [21]: > 100 µM
- GI50 [22]: 61.9 µM
- TGI [22]: > 100 µM
- GI50 [23]: 89.9 µM
- TGI [23]: > 100 µM
- GI50 [24]: 75.5 µM
- TGI [24]: > 100 µM
- GI50 [25]: 73 µM
- TGI [25]: > 100 µM
- GI50 [26]: > 100 µM
- TGI [26]: > 100 µM
- GI50 [27]: 44.8 µM
- TGI [27]: > 100 µM
- GI50 [28]: 52.4 µM
- TGI [28]: > 100 µM
- GI50 [29]: 60 µM
- TGI [29]: > 100 µM
- GI50 [30]: 58.4 µM
- TGI [30]: > 100 µM
- GI50 [31]: 52.2 µM
- TGI [31]: > 100 µM
- GI50 [32]: 1.5 µM
- TGI [32]: > 100 µM
- GI50 [33]: 10.8 µM
- TGI [33]: > 100 µM
- GI50 [34]: 89.8 µM
- TGI [34]: > 100 µM
- GI50 [35]: 50.7 µM
- TGI [35]: > 100 µM
- GI50 [36]: > 100 µM
- TGI [36]: > 100 µM
- GI50 [37]: 25.5 µM
- TGI [37]: > 100 µM
- GI50 [38]: 39.8 µM
- TGI [38]: > 100 µM
- GI50 [39]: 43.4 µM
- TGI [39]: > 100 µM
- GI50 [40]: 10.1 µM
- TGI [40]: > 100 µM
- GI50 [41]: 26 µM
- TGI [41]: > 100 µM
- GI50 [42]: 54.1 µM
- TGI [42]: > 100 µM
- GI50 [43]: 4.38 µM
- TGI [43]: > 100 µM
- GI50 [44]: 14.6 µM
- TGI [44]: > 100 µM
- GI50 [45]: 51.4 µM
- TGI [45]: > 100 µM
- GI50 [46]: 20.3 µM
- TGI [46]: 69.5 µM
- GI50 [47]: > 100 µM
- TGI [47]: > 100 µM
- GI50 [48]: 75.1 µM
- TGI [48]: > 100 µM
- GI50 [49]: 34.6 µM
- TGI [49]: > 100 µM
- GI50 [50]: 4.86 µM
- TGI [50]: > 100 µM
- GI50 [51]: 34.2 µM
- TGI [51]: > 100 µM
- GI50 [52]: 65.2 µM
- TGI [52]: > 100 µM
- GI50 [53]: 28.7 µM
- TGI [53]: > 100 µM
- GI50 [54]: 91.2 µM
- TGI [54]: > 100 µM
- GI50 [55]: 5.7 µM
- TGI [55]: > 100 µM
- GI50 [56]: 32.8 µM
- TGI [56]: > 100 µM
- GI50 [57]: 50.4 µM
- TGI [57]: > 100 µM
- GI50 [58]: 26.7 µM
- TGI [58]: > 100 µM

Structure (SMILES): N#Cc1ccc(Oc2nccc(-c3c(-c4ccc(F)cc4)ncn3C3CCNCC3)n2)cc1
- GI50 [1]: > 25 µM
- TGI [1]: > 25 µM
- GI50 [2]: > 25 µM
- TGI [2]: > 25 µM
- GI50 [3]: 5.85 µM
- TGI [3]: > 13.5 µM
- GI50 [4]: 12.1 µM
- TGI [4]: > 25 µM
- GI50 [5]: > 22.3 µM
- TGI [5]: > 25 µM
- GI50 [6]: > 25 µM
- TGI [6]: > 25 µM
- GI50 [7]: 11.8 µM
- TGI [7]: > 25 µM
- GI50 [8]: > 25 µM
- TGI [8]: > 25 µM
- GI50 [9]: 3.76 µM
- TGI [9]: 8.03 µM
- GI50 [10]: > 25 µM
- TGI [10]: > 25 µM
- GI50 [11]: > 25 µM
- TGI [11]: > 25 µM
- GI50 [12]: > 25 µM
- TGI [12]: > 25 µM
- GI50 [13]: > 25 µM
- TGI [13]: > 25 µM
- GI50 [14]: > 25 µM
- TGI [14]: > 25 µM
- GI50 [15]: 16.6 µM
- TGI [15]: > 25 µM
- GI50 [16]: > 25 µM
- TGI [16]: > 25 µM
- GI50 [17]: > 25 µM
- TGI [17]: > 25 µM
- GI50 [18]: > 16 µM
- TGI [18]: > 25 µM
- GI50 [19]: > 25 µM
- TGI [19]: > 25 µM
- GI50 [20]: > 16.6 µM
- TGI [20]: > 25 µM
- GI50 [21]: > 25 µM
- TGI [21]: > 25 µM
- GI50 [22]: 18.6 µM
- TGI [22]: > 25 µM
- GI50 [23]: 24.9 µM
- TGI [23]: > 25 µM
- GI50 [24]: > 25 µM
- TGI [24]: > 25 µM
- GI50 [25]: > 16.6 µM
- TGI [25]: > 25 µM
- GI50 [26]: > 25 µM
- TGI [26]: > 25 µM
- GI50 [27]: > 25 µM
- TGI [27]: > 25 µM
- GI50 [28]: > 25 µM
- TGI [28]: > 25 µM
- GI50 [29]: > 25 µM
- TGI [29]: > 25 µM
- GI50 [30]: > 14.8 µM
- TGI [30]: > 25 µM
- GI50 [31]: > 16.3 µM
- TGI [31]: > 25 µM
- GI50 [32]: 10.7 µM
- TGI [32]: > 25 µM
- GI50 [33]: > 11.9 µM
- TGI [33]: > 15.6 µM
- GI50 [34]: 20.3 µM
- TGI [34]: > 25 µM
- GI50 [35]: 4.04 µM
- TGI [35]: > 25 µM
- GI50 [36]: > 22.7 µM
- TGI [36]: > 25 µM
- GI50 [37]: > 15.4 µM
- TGI [37]: > 25 µM
- GI50 [38]: 24.6 µM
- TGI [38]: > 25 µM
- GI50 [39]: 11.9 µM
- TGI [39]: > 25 µM
- GI50 [40]: 7.79 µM
- TGI [40]: 24.7 µM
- GI50 [41]: 5.01 µM
- TGI [41]: 12.4 µM
- GI50 [42]: > 25 µM
- TGI [42]: > 25 µM
- GI50 [43]: 8.01 µM
- TGI [43]: 20.8 µM
- GI50 [44]: 14.1 µM
- TGI [44]: > 25 µM
- GI50 [45]: 13.9 µM
- TGI [45]: > 25 µM
- GI50 [46]: > 25 µM
- TGI [46]: > 25 µM
- GI50 [47]: 18.2 µM
- TGI [47]: > 25 µM
- GI50 [48]: > 16.4 µM
- TGI [48]: > 25 µM
- GI50 [49]: > 25 µM
- TGI [49]: > 25 µM
- GI50 [50]: 14 µM
- TGI [50]: > 25 µM
- GI50 [51]: > 25 µM
- TGI [51]: > 25 µM
- GI50 [52]: > 15.1 µM
- TGI [52]: > 25 µM
- GI50 [53]: > 23.7 µM
- TGI [53]: > 25 µM
- GI50 [54]: > 25 µM
- TGI [54]: > 25 µM
- GI50 [55]: 4.54 µM
- TGI [55]: 11.3 µM
- GI50 [56]: > 25 µM
- TGI [56]: > 25 µM
- GI50 [57]: > 25 µM
- TGI [57]: > 25 µM
- GI50 [58]: 5.45 µM
- TGI [58]: > 13.5 µM
